Reference: article PMC10364322, “Evaluation of chronic drug-induced electrophysiological and cytotoxic effects using human-induced pluripotent stem cell-derived cardiomyocytes (hiPSC-CMs)” (Frontiers in Pharmacology, 2023)
Like-named read-outs stand apart in the source and are kept apart here.

How the values were obtained:
[1] = system: hiPSC-CMs (iCell-Cardiomyocytes^2); assay: MEA impedance (cytotoxicity readout) in hiPSC-CMs
Experimental: (§1) Cells were seeded according to the instructions of the cell provider, in fibronectin-coated 48-well MEA plates (Axion Cytoview Plates, M768-tMEA-48B) at a density suited to form a monolayer (i.e., 50 K/well) and maintained in culture in a stage incubator (37°C, 5% CO2).
(§2) At least 4 h before the beginning of the baseline measurements, a full medium exchange was performed (to a final volume of 400 µL per well). Neat compounds were dissolved in 100% DMSO at a stock concentration 1000-fold the highest target concentration. […] Afterwards, these stock solutions were diluted with Maintenance medium (CDi), to 10-fold the intended concentration. The final DMSO concentration in test solutions and vehicle control was 0.1%.
(§3) Spontaneous electrical activity was recorded in hiPSC-CMs monolayers as field potentials using the Maestro Pro MEA instrument (Axion Biosystems, Atlanta, GA, United States), which allows the maintenance of accurate temperature and CO2 levels (37°C, 5% CO2). After the plate was placed in the Maestro Pro and allowed to equilibrate for about 10 min, baseline acquisition of field potential and impedance signals was initiated and lasted for 5 min each. […] As impedance measures resistance of an applied alternating current through the hiPSC-CMs monolayer, a reduction in the attachment of hiPSC-CMs to the bottom of the well due to cell death or changes in the monolayer morphology, causes a drop in the impedance signal.
(§4) After the acquisition of all timepoint measurements, raw data were loaded into the data analysis software Axion Cardiac Analysis Tool (V.3.2.3). […] A.csv file containing information on the FP parameters per well, per time point, was then generated and used as input to the in-house data management system (SPEcII v.3.4, Unlimit-IT, Geel, Belgium), where descriptive statistics were calculated. Summary values at different time points after compound addition are expressed as percent change from baseline and shown as mean ± standard deviation (SD).
(§5) The nonparametric Wilcoxon-Mann Whitney Test was used to compare the percent change from the baseline (Δ%) value between the group treated with the compound at a given concentration and the group treated with the DMSO at each matching time points. A two-sided test at 5% significance level was considered. […] To assess the physiological relevance of changes, a tolerance interval of DMSO experiments was calculated at each time point, for each parameter. […] TIs indicate an interval where, with a certain confidence level (1- α = 0.95), a specified proportion (p = 0.80) of percent change for DMSO data falls. The lower and upper limits based on the TI values were used as cut-offs for the interpretation of the changes. For the cytotoxicity assays, measurements of fluorescence (after background fluorescence subtraction) from wells treated with the compounds were normalized by the average value of vehicle experiments (DMSO 0.1%) to obtain a DMSO-corrected, delta/delta percent change. Experiments from each condition, as delta/delta percent, were averaged and expressed as mean ± SD. Statistical analysis was performed using a non-parametric test (Kruskal-Wallis) and each treatment condition was compared to the relative DMSO 0.1%. Differences were considered statistically significant when the p-value was smaller than 0.05.

[2] = system: hiPSC-CMs (iCell-Cardiomyocytes^2)
Experimental: as §1, §2, §3
The potential presence of various arrhythmic events was evaluated and noted during the data analysis.
as §4, §5

BR (beating rate), % change from baseline ([2]; 0.1 µM, 2h): 2±1%
FPD (field-potential duration), % change from baseline ([2]; 0.1 µM, 2h): 3.2±0.7%
FPDc (field-potential duration corrected by beat-rate), % change from baseline ([2]; 0.1 µM, 2h): 4.1±0.9%
BR (beating rate), % change from baseline ([2]; 0.1 µM, 24h): 2±2%
FPD (field-potential duration), % change from baseline ([2]; 0.1 µM, 24h): 8.9±2.4%
FPDc (field-potential duration corrected by beat-rate), % change from baseline ([2]; 0.1 µM, 24h): 9.7±1.6%
BR (beating rate), % change from baseline ([2]; 0.1 µM, 48h): -1±3%
FPD (field-potential duration), % change from baseline ([2]; 0.1 µM, 48h): 8.3±2.5%
FPDc (field-potential duration corrected by beat-rate), % change from baseline ([2]; 0.1 µM, 48h): 8±2.9%
BR (beating rate), % change from baseline ([2]; 0.1 µM, 72h): 0±2%
FPD (field-potential duration), % change from baseline ([2]; 0.1 µM, 72h): 7.8±1.4%
FPDc (field-potential duration corrected by beat-rate), % change from baseline ([2]; 0.1 µM, 72h): 7.6±1.5%
BR (beating rate), % change from baseline ([2]; 0.1 µM, 96h): -5±2%
FPD (field-potential duration), % change from baseline ([2]; 0.1 µM, 96h): 8.9±2.9%
FPDc (field-potential duration corrected by beat-rate), % change from baseline ([2]; 0.1 µM, 96h): 7.1±3.5%
BR (beating rate), % change from baseline ([2]; 0.3 µM, 2h): 2±3%
FPD (field-potential duration), % change from baseline ([2]; 0.3 µM, 2h): 2.9±2.5%
FPDc (field-potential duration corrected by beat-rate), % change from baseline ([2]; 0.3 µM, 2h): 3.8±2.3%
BR (beating rate), % change from baseline ([2]; 0.3 µM, 24h): 2±2%
FPD (field-potential duration), % change from baseline ([2]; 0.3 µM, 24h): 12.5±1.8%
FPDc (field-potential duration corrected by beat-rate), % change from baseline ([2]; 0.3 µM, 24h): 13±1.9%
BR (beating rate), % change from baseline ([2]; 0.3 µM, 48h): -4±3%
FPD (field-potential duration), % change from baseline ([2]; 0.3 µM, 48h): 12.1±2.3%
FPDc (field-potential duration corrected by beat-rate), % change from baseline ([2]; 0.3 µM, 48h): 10.4±2.2%
BR (beating rate), % change from baseline ([2]; 0.3 µM, 72h): -4±1%
FPD (field-potential duration), % change from baseline ([2]; 0.3 µM, 72h): 9.2±4.1%
FPDc (field-potential duration corrected by beat-rate), % change from baseline ([2]; 0.3 µM, 72h): 7.7±3.7%
BR (beating rate), % change from baseline ([2]; 0.3 µM, 96h): -6±2%
FPD (field-potential duration), % change from baseline ([2]; 0.3 µM, 96h): 10.3±1.1%
FPDc (field-potential duration corrected by beat-rate), % change from baseline ([2]; 0.3 µM, 96h): 8.2±1.1%
BR (beating rate), % change from baseline ([2]; 1 µM, 2h): 3±2%
FPD (field-potential duration), % change from baseline ([2]; 1 µM, 2h): 3.3±5.6%
FPDc (field-potential duration corrected by beat-rate), % change from baseline ([2]; 1 µM, 2h): 4.5±5%
BR (beating rate), % change from baseline ([2]; 1 µM, 24h): 1±4%
FPD (field-potential duration), % change from baseline ([2]; 1 µM, 24h): 19.3±18.2%
FPDc (field-potential duration corrected by beat-rate), % change from baseline ([2]; 1 µM, 24h): 19.6±16.4%
BR (beating rate), % change from baseline ([2]; 1 µM, 48h): -4±4%
FPD (field-potential duration), % change from baseline ([2]; 1 µM, 48h): 20.8±13.7%
FPDc (field-potential duration corrected by beat-rate), % change from baseline ([2]; 1 µM, 48h): 19±15%
BR (beating rate), % change from baseline ([2]; 1 µM, 72h): -6±2%
FPD (field-potential duration), % change from baseline ([2]; 1 µM, 72h): 17.3±16.7%
FPDc (field-potential duration corrected by beat-rate), % change from baseline ([2]; 1 µM, 72h): 15.4±17.1%
BR (beating rate), % change from baseline ([2]; 1 µM, 96h): -6±5%
FPD (field-potential duration), % change from baseline ([2]; 1 µM, 96h): 19±15.6%
FPDc (field-potential duration corrected by beat-rate), % change from baseline ([2]; 1 µM, 96h): 16.5±16.6%
BR (beating rate), % change from baseline ([2]; 3 µM, 72h): -5±2%
FPD (field-potential duration), % change from baseline ([2]; 3 µM, 72h): 12.9±3.8%
FPDc (field-potential duration corrected by beat-rate), % change from baseline ([2]; 3 µM, 72h): 11.2±3%
BR (beating rate), % change from baseline ([2]; 3 µM, 96h): -5±5%
FPD (field-potential duration), % change from baseline ([2]; 3 µM, 96h): 14.4±6.3%
FPDc (field-potential duration corrected by beat-rate), % change from baseline ([2]; 3 µM, 96h): 12.1±5%
BR (beating rate), % change from baseline ([2]; 3 µM, 2h): 3±2%
FPD (field-potential duration), % change from baseline ([2]; 3 µM, 2h): 4.9±3.1%
FPDc (field-potential duration corrected by beat-rate), % change from baseline ([2]; 3 µM, 2h): 6.1±3.3%
BR (beating rate), % change from baseline ([2]; 3 µM, 24h): 1±4%
FPD (field-potential duration), % change from baseline ([2]; 3 µM, 24h): 14.6±2.3%
FPDc (field-potential duration corrected by beat-rate), % change from baseline ([2]; 3 µM, 24h): 15.2±2.8 %
BR (beating rate), % change from baseline ([2]; 3 µM, 48h): -5±2%
FPD (field-potential duration), % change from baseline ([2]; 3 µM, 48h): 14.5±3.8%
FPDc (field-potential duration corrected by beat-rate), % change from baseline ([2]; 3 µM, 48h): 12.5±3%
Structure (SMILES): O=C(O)COCCN1CCN(C(c2ccccc2)c2ccc(Cl)cc2)CC1 (centres unmarked) [Cetirizine]
Imp (impedance), % change from baseline ([1]; 0.1 µM, 2h): -4±4%
Imp (impedance), % change from baseline ([1]; 0.1 µM, 24h): -8±1%
Imp (impedance), % change from baseline ([1]; 0.1 µM, 48h): -7±2%
Imp (impedance), % change from baseline ([1]; 0.1 µM, 72h): -7±3%
Imp (impedance), % change from baseline ([1]; 0.1 µM, 96h): -7±4%
Imp (impedance), % change from baseline ([1]; 0.3 µM, 2h): -3±3%
Imp (impedance), % change from baseline ([1]; 0.3 µM, 24h): -8±2%
Imp (impedance), % change from baseline ([1]; 0.3 µM, 48h): -5±4%
Imp (impedance), % change from baseline ([1]; 0.3 µM, 72h): -5±6%
Imp (impedance), % change from baseline ([1]; 0.3 µM, 96h): -5±6%
Imp (impedance), % change from baseline ([1]; 1 µM, 2h): -4±2%
Imp (impedance), % change from baseline ([1]; 1 µM, 24h): -7±5%
Imp (impedance), % change from baseline ([1]; 1 µM, 48h): -4±7%
Imp (impedance), % change from baseline ([1]; 1 µM, 72h): -5±6%
Imp (impedance), % change from baseline ([1]; 1 µM, 96h): -4±9%
Imp (impedance), % change from baseline ([1]; 3 µM, 72h): -8±7%
Imp (impedance), % change from baseline ([1]; 3 µM, 96h): -6±7%
Imp (impedance), % change from baseline ([1]; 3 µM, 2h): -3±2%
Imp (impedance), % change from baseline ([1]; 3 µM, 24h): -7±4%
Imp (impedance), % change from baseline ([1]; 3 µM, 48h): -3±6%
